Assay results reported in EP3412661A1, “COCRYSTALS OF VORTIOXETINE HYDROBROMIDE AND RESORCINOL” (Enantia, S.L., priority 2017, dated 2018).
In brackets after ≈: the same amount, converted by molar mass. Counter-ions that a name gives are not always drawn.

Legend:
[1] = cited from earlier work
[2] = according to WO2007/144005A1 / US9562024B2; hydrobromide; cited from earlier work
[3] = cited from earlier work; remark: listed apart in the source
[4] = Comparative kinetic solubility study in water at room temperature (HPLC vortioxetine peak area, pH and XRPD of filtered solid); conditions: for Analysis 1 XRPD / Analysis 2 XRPD / Analysis 1 pH / Analysis 2 pH: Form β study; for Analysis 1 XRPD / Analysis 2 XRPD: filtered solid; for Analysis 1 pH / Analysis 2 pH: mother liquor
Method: A comparative kinetic solubility study of the cocrystal of vortioxetine·HBr and resorcinol 2:1 Form I and with vortioxetine·HBr Form β was performed in water at room temperature (RT). The relative solubility of vortioxetine was obtained by comparison of the vortioxetine peak area in the HPLC analyses of the mother liquors.
The solubility tests were performed in a minireactor HME-R, provided with a 250 mL vessel, a temperature sensor and mechanical stirring.
1 g of each material was stirred in water (150 ml, […]) at 350 rpm. Aliquots of ca. 5 ml of suspension were filtered in a sintered glass funnel (#4) at different times: 30, 60, 180 min and 24 h. After filtration, the pH of the mother liquor was determined. 1 mL of mother liquor was measured with a pipette and diluted to 10 mL with water in a volumetric flask. A portion of this solution was filtered again through a 0.20 µm nylon filter and directly analyzed by HPLC (2 injections for each sample). The filtered solids were analyzed by XRPD, without a drying step, to determine the crystalline phase corresponding to the measured solubility.
The HPLC conditions were the following:
The kinetic solubility of cocrystal vortioxetine hydrobromide and resorcinol Form I and vortioxetine·HBr Form β at room temperature in water was determined in duplicate.

[5] = Stability test under accelerated stability conditions (ICH), crystalline phase checked by XRPD; format: physicochemical; conditions: 40 °C / 75±5% RH
Method: The samples were analyzed by XRPD to observe if the crystalline phase was stable (see Table 2).

[6] = compared with vortioxetine hydrobromide Form β (example 140 of US9562024B2); cited from earlier work
[7] = water, room temperature, 30 min
[8] = water, room temperature, 60 min
[9] = water, room temperature, 180 min

In the case of `Cc1ccc(Sc2ccccc2N2CCNCC2)c(C)c1` [Form α of vortioxetine hydrobromide, vortioxetine hydrobromide], the solubilities in water ([1]; Examples 4b and 4d of WO2007/144005A1, listed as vortioxetine hydrobromide Form α, hydrobromide) is given as 2 mg/mL and the stability [2] is given as “unstable and is transformed to the Form β of vortioxetine hydrobromide at room temperature”.
In the case of `Cc1ccc(Sc2ccccc2N2CCNCC2)c(C)c1` [Form γ of vortioxetine hydrobromide, vortioxetine hydrobromide], the hygroscopicity ([3]; under low-humidity conditions) is given as 2.0% and the stability [2] is given as “very unstable”.
In the case of `Cc1ccc(Sc2ccccc2N2CCNCC2)c(C)c1` [Vortioxetine, 1-[2-(2,4-dimethyl-phenylsulfanyl)-phenyl]piperazine], the solubility in water ([1]; 25 °C) is listed as 7.8 µg/mL (≈ 26.1 µM).
With `Cc1ccc(Sc2ccccc2N2CCNCC2)c(C)c1` [Vortioxetine·HBr Form β, vortioxetine hydrobromide] the “maximum of solubility afforded after” value [4] was “three hours”, the “spring and parachute effect” value [4] was “not seen” and the “Analysis 1 Average Form β (Vortioxetine area)” value (“Analysis 1 Average Form β” below) ([4]; 30 min) was 564. The “Analysis 2 Average Form β (Vortioxetine area)” value (“Analysis 2 Average Form β” below) ([4]; 30 min) was 427, the “Average Vortioxetine area” value ([4]; 30 min) was 495 and the “Analysis 1 Average Form β” value ([4]; 60 min) was 550. For the same compound, the “Analysis 2 Average Form β” value ([4]; 60 min) was 537, the “Average Vortioxetine area” value ([4]; 60 min) was 544 and the “Analysis 1 Average Form β” value ([4]; 180 min) was 579. The “Analysis 2 Average Form β” value ([4]; 180 min) was 561, the “Average Vortioxetine area” value ([4]; 180 min) was 570 and the “Analysis 1 Average Form β” value ([4]; 24 h) was 572. The “Analysis 2 Average Form β” value ([4]; 24 h) was 581, the “Average Vortioxetine area” value ([4]; 24 h) was 576 and the “Analysis 1 XRPD” value [4, 7] was “Form β”. The “Analysis 2 XRPD” value [4, 7] was “Form β”, the “Analysis 1 XRPD” value [4, 8] was “Form β” and the “Analysis 2 XRPD” value [4, 8] was “Form β”. For the same compound, the “Analysis 1 XRPD” value [4, 9] was “Form β”, the “Analysis 2 XRPD” value [4, 9] was “Form β” and the “Analysis 1 XRPD” value ([4]; water, room temperature, 24 h) was “Form β”. The “Analysis 2 XRPD” value ([4]; water, room temperature, 24 h) was “Form β”, the “Analysis 1 pH” value [4, 7] was 4.9 and the “Analysis 2 pH” value [4, 7] was 5.3. The “Analysis 1 pH” value [4, 8] was 4.8, the “Analysis 2 pH” value [4, 8] was 5.1 and the “Analysis 1 pH” value [4, 9] was 4.8. For the same compound, the “Analysis 2 pH” value [4, 9] was 5.1, the “Analysis 1 pH” value ([4]; water, room temperature, 24 h) was 5.6 and the “Analysis 2 pH” value ([4]; water, room temperature, 24 h) was 5.5. The “crystalline form after 24 hours in water dispersion” value ([4]; water, room temperature, 24 hours, XRPD) was “unchanged”, the pH ([4]; water, room temperature, remaining constant over the study) was 4-5 and the XRPD ([5]; 7 days) was “stable”. For the same compound, the XRPD ([5]; 14 days) was “stable”, the XRPD ([5]; 21 days) was “stable” and the XRPD ([5]; 28 days, hydrobromide) was “stable”. For the same compound, the XRPD ([5]; 28 days, listed as Vortioxetine•HBr Form β, hydrobromide) was “remained stable”.
In the case of `Br.Br.Cc1ccc(Sc2ccccc2N2CCNCC2)c(C)c1.Cc1ccc(Sc2ccccc2N2CCNCC2)c(C)c1.Oc1cccc(O)c1` [cocrystal Form I, cocrystal of vortioxetine hydrobromide and resorcinol], the XRPD ([5]; 7 days) is reported as “stable”, the XRPD ([5]; 14 days) is reported as “stable” and the XRPD ([5]; 21 days) is reported as “stable”. The XRPD ([5]; 28 days) was “stable”, the XRPD ([5]; 28 days, listed as cocrystal of vortioxetine hydrobromide and resorcinol Form I) was “remained stable” and the XRPD ([5]; 28 days, listed as cocrystal of vortioxetine·HBr and resorcinol Form I) was “remained stable”.
In the case of `Cc1ccc(Sc2ccccc2N2CCNCC2)c(C)c1` [ethyl acetate solvate of vortioxetine hydrobromide], the stability [2] is listed as “unstable”.
For `Cc1ccc(Sc2ccccc2N2CCNCC2)c(C)c1` [hemihydrate of vortioxetine hydrobromide, vortioxetine hydrobromide], the “hygroscopicity (in words)” value ([3]; according to WO2007/144005A1 / US9562024B2) is given as “hygroscopic” and the stability [2] is given as “unstable”.
For `Cc1ccc(Sc2ccccc2N2CCNCC2)c(C)c1` [vortioxetine hemihydrobromide], the kinetic solubility [6] is given as “much lower”.
